Source: US20130178449A1, “2-Methylene-20(21)-Dehydro-19,24,25,26,27-Pentanor-Vitamin D Analogs” (WISCONSIN ALUMNI RESEARCH FOUNDATION, priority 2011, published 2013)
Read-outs that look alike come from different tables or passages of the source.

Legend:
HL-60 cells = test: HL-60 differentiation (nitro blue tetrazolium reduction); type: cell-based, human; settings: for EC50: HL-60 cells into monocytes, FIG. 2, read-out: EC50, HL-60 cell differentiation
Experimental: The study drugs were dissolved in ethanol and the concentrations determined using UV spectrophotometry. Serial dilutions were prepared so that a range of drug concentrations could be tested without changing the final concentration of ethanol (≦0.2%) present in the cell cultures.
Human promyelocytic leukemia (HL60) cells were grown in RPMI-1640 medium containing 10% fetal bovine serum. The cells were incubated at 37° C. in the presence of 5% CO2.
HL60 cells were plated at 1.2×10^5 cells/ml. Eighteen hours after plating, cells in duplicate were treated with drug. Four days later, the cells were harvested and a nitro blue tetrazolium reduction assay was performed (Collins et al., 1979; J. Exp. Med. 149:969-974). The percentage of differentiated cells was determined by counting a total of 200 cells and recording the number that contained intracellular black-blue formazan deposits. Verification of differentiation to monocytic cells was determined by measuring phagocytic activity (data not shown).

[1] = system: 24-hydroxylase (24Ohase) gene promoter; test: In vitro transcription assay (24-hydroxylase promoter luciferase reporter in ROS 17/2.8 bone cells); type: cell-based; settings: for EC50: ROS 17/2.8 cells, 24-hydroxylase gene, FIG. 3, read-out: EC50, transcriptional activity in bone cells
Experimental: Transcription activity was measured in ROS 17/2.8 (bone) cells that were stably transfected with a 24-hydroxylase (24Ohase) gene promoter upstream of a luciferase reporter gene (Arbour et al., 1998). Cells were given a range of doses. Sixteen hours after dosing the cells were harvested and luciferase activities were measured using a luminometer.
RLU=relative luciferase units.

[2] = Bone calcium mobilization (serum calcium) in vitamin D-deficient rats; type: in vivo, rat; settings: ip, 4 consecutive days, rats on 0.02% Ca diet
Experimental: (§1) Male, weanling Sprague-Dawley rats were placed on Diet 11 (0.47% Ca) diet+AEK oil for one week followed by Diet 11 (0.02% Ca)+AEK oil for 3 weeks. The rats were then switched to a diet containing 0.47% Ca for one week followed by two weeks on a diet containing 0.02% Ca. Dose administration began during the last week on 0.02% calcium diet. Four consecutive ip doses were given approximately 24 hours apart. Twenty-four hours after the last dose, blood was collected from the severed neck and the concentration of serum calcium determined as a measure of bone calcium mobilization. The first 10 cm of the intestine was also collected for intestinal calcium transport analysis using the everted gut sac method.

[3] = Intestinal calcium transport (everted gut sac) in vitamin D-deficient rats; type: in vivo, rat; settings: ip, 4 consecutive days
Experimental: as §1

[4] = target: T1, full-length recombinant rat vitamin D receptor (Rattus norvegicus, UniProt P13053); test: Vitamin D receptor binding (competition with [3H]-1,25(OH)2D3)
T1 construct: Full-length recombinant rat receptor was expressed in E. coli BL21 (DE3) Codon Plus RIL cells; histidine tag (C); made in house; host or cells: E. coli BL21 (DE3) Codon Plus RIL
T1 sequence (P13053 1-423): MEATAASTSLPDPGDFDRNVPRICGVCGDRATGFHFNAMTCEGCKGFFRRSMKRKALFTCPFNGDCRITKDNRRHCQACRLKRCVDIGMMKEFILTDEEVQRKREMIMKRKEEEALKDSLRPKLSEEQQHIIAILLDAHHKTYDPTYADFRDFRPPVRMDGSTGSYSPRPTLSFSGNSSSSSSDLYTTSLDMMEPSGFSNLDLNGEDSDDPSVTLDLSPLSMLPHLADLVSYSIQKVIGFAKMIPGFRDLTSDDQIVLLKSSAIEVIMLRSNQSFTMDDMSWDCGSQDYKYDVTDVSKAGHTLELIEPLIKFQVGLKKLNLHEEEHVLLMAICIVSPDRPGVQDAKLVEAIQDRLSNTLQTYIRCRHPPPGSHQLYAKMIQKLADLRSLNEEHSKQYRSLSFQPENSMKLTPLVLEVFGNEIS
Experimental: Full-length recombinant rat receptor was expressed in E. coli BL21 (DE3) Codon Plus RIL cells and purified to homogeneity using two different column chromatography systems. The first system was a nickel affinity resin that utilizes the C-terminal histidine tag on this protein. The protein that was eluted from this resin was further purified using ion exchange chromatography (S-Sepharose Fast Flow). Aliquots of the purified protein were quick frozen in liquid nitrogen and stored at −80° C. until use. For use in binding assays, the protein was diluted in TEDK50 (50 mM Tris, 1.5 mM EDTA, pH7.4, 5 mM DTT, 150 mM KCl) with 0.1% Chaps detergent. The receptor protein and ligand concentration were optimized such that no more than 20% of the added radiolabeled ligand was bound to the receptor.
Radiolabeled and unlabeled ligands were added to 100 mcl of the diluted protein at a final ethanol concentration of ≦10%, mixed and incubated overnight on ice to reach binding equilibrium. The following day, 100 mcl of hydroxylapatite slurry (50%) was added to each tube and mixed at 10-minute intervals for 30 minutes. The hydroxylapaptite was collected by centrifugation and then washed three times with Tris-EDTA buffer (50 mM Tris, 1.5 mM EDTA, pH 7.4) containing 0.5% Titron X-100. […] Total binding was determined from the tubes containing only radiolabeled ligand.

SMILES	EC50 (HL-60 cells) [nM]	EC50 [1] [nM]	bone calcium mobilization (serum calcium) ([2]; 260 pmol/day)	intestinal calcium transport ([3]; 260 pmol/day)	VDR binding activity relative to 1α,25-dihydroxyvitamin D3 ([4]; compared to native hormone)	Ki ([4]; full-length recombinant rat VDR, FIG. 1) [nM]	EC50 (HL-60 cells; Homo sapiens) [nM]	times less potent than 1,25(OH)2D3 on HL-60 cell differentiation (HL-60 cells; compared to 1,25(OH)2D3)	times less potent than 1,25(OH)2D3 in increasing transcription of the 24-hydroxylase gene ([1]; bone cells, compared to 1,25(OH)2D3) [times]	bone calcium mobilization (serum calcium) ([2]; 7020 pmol/day)	bone calcium mobilization (serum calcium) ([2]; 35100 pmol/day)	intestinal calcium transport ([3]; 7020 pmol/day)	intestinal calcium transport ([3]; 35100 pmol/day)
C=C1/C(=C\C=C2/CCC[C@]3(C)[C@@H]([C@H](C)CCCC(C)(C)O)CC[C@@H]23)C[C@@H](O)C[C@@H]1O [1,25(OH)2D3, 1α,25-dihydroxyvitamin D3, reference compound]	3	0.2	increased serum calcium levels	significant increase									
C=C1[C@H](O)CC(=C/C=C2\CCC[C@]3(C)[C@@H](C(=C)CC)CC[C@@H]23)C[C@H]1O [MDBE 20, 2-methylene-20(21)-dehydro-19,24,25,26,27-pentanor-1α-hydroxyvitamin D3]		4			about one-half log less active	0.08	30	about 10 times	10	did not result in mobilization of bone calcium	no substantial effect was seen	does not promote intestinal calcium transport	does not promote intestinal calcium transport
